Assays:
MEFs = test: Direct reprogramming of MEFs into astrocytes, GFAP/S100β immunostaining; type: cell-based, mouse; settings: MEFs treated for 25 days, GFAP immunostaining
Method: Cell culture. MEFs and TTFs were derived from E13.5 embryos of Oct4-GFP transgenic (OG2) mice (Szabo et al., 2002), wild type or GFAP-GFP transgenic mice (Jackson Laboratory) (Zhuo et al., 1997). These cells were cultured in MEF medium containing DMEM, 10% FBS, 0.1 mM nonessential amino acids, and 2 mM L-glutamine. Mouse primary astrocytes were isolated from P1-2 pups following published protocol ([…] et al., 2013) and cultured in DMEM containing 10% FBS. Direct reprogramming mouse fibroblasts into astrocytes. MEFs were plated on 6-well or 12-well plates at a cell density of 3×10^3 cells/cm^2. Cells were cultured in MEF medium for 24 hr, then changed to mouse induced astrocyte medium (iAM) containing knock-out DMEM with 10% knock-out serum replacer, 10% FBS, 2 mM L-glutamine, 0.1 mM NEAA, 0.1 mM β-mercaptoethanol, and 100 ng/ml FGF. Cells were treated with compounds, including […] valproaic acid (VPA) (Stemgent), 3 μM CHIR99021(D&C chemicals), 10 μM SB-431542 (D&C chemicals), 10 μM Tranylcypromine (Stemgent), and 1 μM OAC1(Li et al., 2012) for 10 days, replated onto Matrigel-coated plates (BD Biosciences) and continued with compound treatment for another 15 days. Cells were then switched to mouse astrocyte medium (AM) containing DMEM with 10% heat-inactivated FBS. Immunocytochemistry. […]

Oct4-luc = Oct4-luc reporter induction by OAC compounds; type: cell-based; parameters: key to Oct4-luc Activity: Active: Compounds that induce Oct4-luc 1.8-fold or more were classified as being “active”; Inactive: molecules that induce Oct4-luc less than 1.8-fold were indicated as being “inactive”
reprogramming efficiency = test: Enhancement of reprogramming efficiency by OAC compounds; type: cell-based
[1] = system: MEF transduced with AxD GFAP-GFP; test: GFAP protein aggregates in MEF transduced with AxD mutant GFAP-GFP; type: cell-based, mouse; settings: ceftriaxone vs vehicle
Method: FIGS. 12A-12E illustrate recapitulating GFAP protein aggregates in VCSTO-induced astrocytes (iA) transfected with an AxD mutant GFAP. […] The transfected cells are indicated by GFP. Nuclei Dapi staining (blue) is included in the merged images. Scale bar, 10 μm. […] Scale bar, 10 μm. […] The percentage of iA that contained the GFAP-GFP aggregates was reduced upon ceftriaxone treatment. n=400 to 500 cells. […] MEF transduced with the AxD GFAP-GFP were treated with ceftriaxone (+Cef) or vehicle control (−Cef). The percentage of MEF that contain the GFAP-GFP aggregates remained the same in the absence or presence of ceftriaxone treatment. n=600 to 900 cells. […] Error bars are sd of the mean, **p<0.01 by Student's t-test.
AxD is a neurological disease with astrocyte dysfunction and is caused by genetic mutation of the GFAP gene (Messing et al., 2012). Expression of AxD mutant GFAP induces the expression of αB-crystallin, a small heat shock protein, and the formation of protein aggregates containing GFAP and αB-crystallin in astrocytes (Messing et al., 2012). The compound-induced astrocytes were tested to see if they could be used to model AxD. Plasmid expressing GFP fusion of the wild type (WT) or AxD mutant GFAP containing the R239C mutation, a hotspot mutation for AxD (Hagemann et al., 2006), were transfected into VCSTO-induced astrocytes. […]

[2] = system: induced astrocytes (iA) transfected with R239C AxD mutant GFAP-GFP; test: GFAP protein aggregates in induced astrocytes transfected with AxD mutant GFAP-GFP; type: cell-based, mouse; settings: 100 μM ceftriaxone for 48 hr vs vehicle
Method: Transfection into induced astrocytes. Induced astrocytes (iA) were seeded at 1×10^5 cells per well in 12-well plates and incubated overnight. Then 2 μg plasmid of human wild type (WT) GFAP-GFP or AxD mutant GFAP-GFP with the R239C mutation (Bachetti et al., 2008) was transfected into iA using Lipofectamine® 2000 (Invitrogen). Forty eight hr after transfection, cells were assayed by immunostaining. For drug treatment, 24 hr after transfection, cells were treated with vehicle control or 100 μM ceftriaxone for 48 hr, followed by immunostaining.
AxD is a neurological disease with astrocyte dysfunction and is caused by genetic mutation of the GFAP gene (Messing et al., 2012). Expression of AxD mutant GFAP induces the expression of αB-crystallin, a small heat shock protein, and the formation of protein aggregates containing GFAP and αB-crystallin in astrocytes (Messing et al., 2012). The compound-induced astrocytes were tested to see if they could be used to model AxD. Plasmid expressing GFP fusion of the wild type (WT) or AxD mutant GFAP containing the R239C mutation, a hotspot mutation for AxD (Hagemann et al., 2006), were transfected into VCSTO-induced astrocytes. […] VCSTO-induced astrocytes transfected with the AxD mutant GFAP were treated with ceftriaxone.

| Oct4-luc fold Induction (Oct4-luc) [fold] | SMILES | Oct4-luc Activity (Oct4-luc) | further results |
| --- | --- | --- | --- |
|  | Cc1cccc(-c2n[nH]cc2-c2ccc3ncccc3n2)n1 [Compound 6, 2-[5-(6-methylpyridin-2-yl)-1H-pyrazol-4-yl]-1,5-naphthyridine] |  | induction of GFAP-positive cells from MEFs (MEFs): able to induce GFAP-positive cells |
| 4.72 | O=C(Nc1cc2cc[nH]c2cn1)c1ccccc1 [Compound C1] | Active | Enhance reprogramming efficiency (reprogramming efficiency): YES |
| 4.15 | O=C(Nc1ccc2[nH]ccc2c1)c1ccccc1 [Compound C2] | Active | Enhance reprogramming efficiency (reprogramming efficiency): YES |
| 3.84 | O=C(Nc1ccc2[nH]ccc2c1)c1ccc(F)cc1 [Compound C3] | Active | Enhance reprogramming efficiency (reprogramming efficiency): YES |
| 5.46 | COc1ccc(C(=O)Nc2ccc3[nH]ccc3c2)cc1 [Compound C4] | Active |  |
| 2.87 | O=C(Nc1ccc2[nH]ccc2c1)c1ccc2nonc2c1 [Compound C5] | Active |  |
| 3.18 | COc1ccc(C(=O)Nc2ccc3[nH]ncc3c2)cc1 [Compound C6] | Active |  |
| 2.2 | O=C(Nc1ccc2[nH]ncc2c1)c1ccc(F)cc1 [Compound C7] | Active |  |
| 1.89 | O=C(Nc1ccc2[nH]ncc2c1)c1ccccc1 [Compound C8] | Active |  |
| 7.22 | CCOc1ccc(C(=O)Nc2ccc3[nH]ncc3c2)cc1 [Compound C9] | Active |  |
| 4.51 | CCc1ccc(C(=O)Nc2ccc3[nH]ncc3c2)cc1 [Compound C10] | Active |  |
| 3.78 | CC(C)c1ccc(C(=O)Nc2ccc3[nH]ncc3c2)cc1 [Compound C11] | Active |  |
| 3.6 | O=C(Nc1ccc2[nH]ncc2c1)c1ccc(Cl)cc1Cl [Compound C12] | Active |  |
| 2.78 | Cc1ccc(C(=O)Nc2ccc3[nH]ncc3c2)cc1C [Compound C13] | Active |  |
| 2.67 | CCOc1cccc(C(=O)Nc2ccc3[nH]ncc3c2)c1 [Compound C14] | Active |  |
| 1.93 | COc1cccc(C(=O)Nc2ccc3[nH]ncc3c2)c1 [Compound C15] | Active |  |
| 1 | CN1CCC(c2c[nH]c3ccc(NC(=O)c4ccc(F)cc4)cc23)CC1 [Compound C16] | Inactive |  |

| Oct4-luc fold Induction (Oct4-luc) [fold] | SMILES | Oct4-luc Activity (Oct4-luc) | further results |
| --- | --- | --- | --- |
| 1.1 | Cc1ccc(C(=O)Nc2ccc3[nH]cc(C#N)c3c2)cc1 [Compound C17] | Inactive |  |
| 1.27 | O=C(Nc1ccc2[nH]ncc2c1)c1cccc(F)c1 [Compound C18] | Inactive |  |
| 1.65 | O=C(Nc1ccc2[nH]ncc2c1)c1cccc(Cl)c1 [Compound C19] | Inactive |  |
| 1.48 | O=C(Nc1ccc2[nH]ncc2c1)c1cccc(Br)c1 [Compound C20] | Inactive |  |
| 1.5 | O=C(Nc1ccc2[nH]ncc2c1)c1ccccc1F [Compound C22] | Inactive |  |
| 1.72 | O=C(Nc1ccc2[nH]ncc2c1)c1ccccc1Cl [Compound C23] | Inactive |  |
| 1.46 | O=C(Nc1ccc2[nH]ncc2c1)c1ccccc1Br [Compound C24] | Inactive |  |
| 1.5 | COc1ccccc1C(=O)Nc1ccc2[nH]ncc2c1 [Compound C25] | Inactive |  |
| 1.22 | CCOc1ccccc1C(=O)Nc1ccc2[nH]ncc2c1 [Compound C26] | Inactive |  |
| 1.37 | COc1cccc(C(=O)Nc2ccc3[nH]ncc3c2)c1OC [Compound C27] | Inactive |  |
| 1.42 | COc1ccc(C(=O)Nc2ccc3[nH]ncc3c2)c(OC)c1 [Compound C28] | Inactive |  |
| 1.13 | COc1ccc(C(=O)Nc2ccc3[nH]ncc3c2)cc1OC [Compound C29] | Inactive |  |
| 1 | CCOc1ccc(C(=O)Nc2ccc3[nH]ncc3c2)cc1OCC [Compound C30] | Inactive |  |
| 1 | O=C(Nc1ccc2[nH]nnc2c1)c1cccc(Cl)c1 [Compound C31] | Inactive |  |
| 1.3 | Cc1nc2cc(NC(=O)c3ccc([N+](=O)[O-])cc3)ccc2[nH]1 [Compound C32] | Inactive |  |
|  | NC(=O)c1ccc(-c2nc(-c3ccc4c(c3)OCO4)c(-c3ccccn3)[nH]2)cc1 [S, 4-[4-(1,3-benzodioxol-5-yl)-5-pyridin-2-yl-1H-imidazol-2-yl]benzamide] |  | induction of GFAP-positive cells from MEFs (MEFs): sufficient to induce GFAP-positive cells |
|  | CO/N=C(\C(=O)N[C@@H]1C(=O)N2C(C(=O)O)=C(CSc3nc(=O)c(=O)[nH]n3C)CS[C@H]12)c1csc(N)n1 [ceftriaxone] |  | GFAP protein aggregates in MEF with AxD mutant GFAP [1]: not responsive; GFAP protein aggregates in iA with AxD mutant GFAP [2]: Substantial elimination of GFAP protein aggregates |

| SMILES | Oct4-luc fold Induction (Oct4-luc) [fold] | Oct4-luc Activity (Oct4-luc) | further results |
| --- | --- | --- | --- |
| O=C(Nc1ccc2[nH]ncc2c1)c1cccc(C(F)(F)F)c1 [Compound C21] | 1.48 | Inactive |  |
